In general, IC50 refers to the concentration that gives 50% inhibition.

One experiment concerns the target T1, Syk kinase (Homo sapiens, UniProt P43405).
T1 construct: purchased
Kind of experiment: Syk kinase inhibition, Caliper LabChip off-chip mobility-shift kinase assay. To be noted: Caliper LabChip assay; read-out: Syk Enzyme IC50. Type of experiment: biochemical. The procedure, abridged: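 Purified Syk pre-incubated 15 min with compound in 100 mM HEPES pH 7.5, 1 mM DTT, 10 mM MgCl2 or MnCl2, 0.002% Brij-35, then 1.5 μM fluorescein peptide and ATP at apparent KM added; 1–1.5 h at room temperature, 4% DMSO, EDTA stop. Microfluidic mobility-shift product/substrate conversion gave % inhibition; IC50 from 12-point series (10–0.00003 μM) by 4-parameter fit.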
With `CCn1ccc2cc(-c3cnc(N)nc3)nc(N)c2c1=O` [compound 743, 8-amino-6-(2-aminopyrimidin-5-yl)-2-ethyl-2,7-naphthyridin-1(2H)-one], the IC50 is 0.287 µM.

With `NC(=O)Cn1ccc2cc(-c3cnc(N)nc3)nc(NC3CC(F)(F)C3)c2c1=O` [compound 759], the IC50 is 0.175 µM.

`O=c1c2c(NC3CCS(=O)(=O)C3)nc(Nc3cnccn3)cc2ccn1CCO` (centres unmarked) [compound 975]: the IC50 stood at 0.37 µM.

Take `CC(C)(C)Nc1nc(Nc2cnccn2)cc2ccn(CC(=O)N3CCOCC3)c(=O)c12` [compound 1008]: the IC50 amounted to 0.238 µM.

In the case of `C[C@@H](CO)Oc1cc(Nc2cc3ccn(C[C@H](O)CO)c(=O)c3c(NC(C)(C)C)n2)ncn1` [compound 643, 8-(tert-butylamino)-2-((S)-2,3-dihydroxypropyl)-6-(6-((S)-1-hydroxypropan-2-yloxy)pyrimidin-4-ylamino)-2,7-naphthyridin-1(2H)-one], the IC50 is 0.009 µM.

Take `CC(C)(C)Nc1nc(Nc2cc(C(C)(C)O)ncn2)cc2ccn(CCO)c(=O)c12` [compound 716]: the IC50 stood at 0.035 µM.

On to `CC(C)(C)Nc1nc(Nc2cnccn2)cc2ccn(CCOCCO)c(=O)c12` [compound 1013], for which the IC50 was found to be 0.069 µM.

For `Cc1ccnc(Nc2cc3ccn(C(C)C)c(=O)c3c(N[C@H]3CC[C@@H](O)CC3)n2)c1` [compound 943], the IC50 turned out to be 0.039 µM.

As for `CC(C)(C)Nc1nc(Nc2nccs2)cc2ccn(CCO)c(=O)c12` [compound 692], the half-maximal inhibitory concentration (IC50) stood at 1.02 µM.

Regarding `CC(C)(C)Nc1nc(Nc2cc(N3CCCC(O)C3)ccn2)cc2ccn(CCO)c(=O)c12` (centres unmarked) [compound 848], the IC50 amounted to 0.615 µM.

On to `CC(C)(C)Nc1nc(Nc2cnccn2)cc2ccn(CCF)c(=O)c12` [compound 1001], for which the IC50 came to 0.049 µM.

For the molecule `CC(C)(C)Nc1nc(Nc2cc(-c3ccno3)ccn2)cc2ccn(CCO)c(=O)c12` [compound 689], the IC50 was 0.151 µM.

As to `CCn1ccc2cc(Nc3cc(C(C)(C)O)ccn3)nc(NC3(C)CCC3)c2c1=O` [compound 702], the IC50 turned out to be 0.085 µM.

As to `Cc1cnccc1-c1ccnc(Nc2cc3ccn(CCO)c(=O)c3c(NC(C)(C)C)n2)c1` [compound 853], the IC50 worked out at 0.111 µM.

For `CC1(Nc2nc(Nc3cc(C(C)(C)O)ncn3)cc3ccn(CC(O)CO)c(=O)c23)CC1` (centres unmarked) [compound 729], the IC50 was 0.031 µM.

Consider `CC(C)(C)Nc1nc(Nc2ccc(F)cn2)cc2ccn(CCO)c(=O)c12` [compound 696], for which the IC50 was 0.328 µM.

`Nc1nc(Nc2nccc(O)n2)cc2ccn(CCO)c(=O)c12` [compound 812]: the IC50 was found to be 0.359 µM.

On to `CCn1ccc2cc(Nc3cnccn3)nc(N[C@H]3CC[C@H](O)CC3)c2c1=O` [compound 949], for which the IC50 is 0.05 µM.

In the case of `CCc1cc(Nc2cc3ccn(CCO)c(=O)c3c(NC(C)(C)C)n2)ncn1` [compound 619, 8-(tert-butylamino)-6-(6-ethylpyrimidin-4-ylamino)-2-(2-hydroxyethyl)-2,7-naphthyridin-1(2H)-one], the IC50 turned out to be 0.102 µM.

In the case of `CC(C)(C)Nc1nc(Nc2cnccn2)cc2ccn(Cc3ccncc3)c(=O)c12` [compound 1019], the IC50 was determined as 0.301 µM.

For the molecule `CC(C)(C)Nc1nc(Nc2cc(N3CCC(=O)CC3)ncn2)cc2ccn(CCO)c(=O)c12` [compound 632], the IC50 was 0.117 µM.

In the case of `CC(C)(C)Nc1nc(Nc2cnccn2)cc2ccn(CC(O)CO)c(=O)c12` (centres unmarked) [compound 664, 8-(tert-butylamino)-2-(2,3-dihydroxypropyl)-6-(pyrazin-2-ylamino)-2,7-naphthyridin-1(2H)-one], the IC50 is 0.007 µM.

`CCOC(=O)c1cnn(-c2cc(Nc3cc4ccn(CCO)c(=O)c4c(NC(C)(C)C)n3)ncn2)c1` [compound 889]: the IC50 is 2.19 µM.

For the molecule `CCn1ccc2cc(Nc3cnccn3)nc(NC3CCCC(O)C3)c2c1=O` (centres unmarked) [compound 973], the half-inhibitory concentration (IC50) was 0.026 µM.

On to `CC(C)(C)Nc1nc(Nc2cc(OCC3CCOC3)ncn2)cc2ccn(CC(O)CO)c(=O)c12` (centres unmarked) [compound 887], for which the IC50 is 0.048 µM.

For `CCn1ccc2cc(Nc3nccc(O)n3)nc(N[C@H]3CCC[C@@H]3O)c2c1=O` [compound 956], the IC50 worked out at 0.066 µM.

The same experiment, now with this note: read-out: Syk Enzyme IC50.
Regarding `CCn1ccc2cc(Nc3cnccn3)nc(N[C@H]3CCC[C@@H]3O)c2c1=O` [compound 423], the IC50 is 0.0524 µM.

Consider `CCOCCN1CCC(c2ccc(Nc3nc(-c4cncc(OC)n4)cc4cc[nH]c(=O)c34)cc2C)CC1` [compound 85], for which the IC50 was 0.078 µM.

Turning to `Cc1ncc(-c2cc3cc[nH]c(=O)c3c(Nc3ccc(C4CCN(C5CS(=O)(=O)C5)CC4)c(C)c3)n2)cn1` [compound 107], the IC50 stood at 0.117 µM.

Turning to `COc1cncc(-c2cc3cc[nH]c(=O)c3c(Nc3ccc(C4CCN(C(C)=O)CC4)c(C)c3)n2)n1` [compound 144], the IC50 was 0.092 µM.

With `COc1cncc(-c2cc3cc[nH]c(=O)c3c(Nc3ccc(C4CCN(CC5CCCO5)CC4)c(C)c3)n2)n1` (centres unmarked) [compound 77], the IC50 amounted to 0.115 µM.

In the case of `CC(CO)Nc1nc(-c2cnc(N)nc2)cc2cc[nH]c(=O)c12` (centres unmarked) [compound 183], the IC50 worked out at 0.203 µM.

Regarding `O=c1[nH]ccc2cc(C3CCOCC3)nc(Nc3ccc(N4CCOCC4)cc3)c12` [compound 87], the IC50 came out at 0.058 µM.

Consider `CCN1CCN(CCc2ccc(Nc3nc(Nc4ccc(C(N)=O)cn4)cc4cc[nH]c(=O)c34)cc2)CC1` [compound 579], for which the IC50 was determined as 0.113 µM.

Consider `COCCn1ccc2cc(Nc3cc(C)ccn3)nc(NC(C)C)c2c1=O` [compound 314], for which the IC50 was 0.237 µM.

Regarding `Cc1ccnc(Nc2cc3cc[nH]c(=O)c3c(NCC(F)(F)F)n2)c1` [compound 516], the IC50 is 0.152 µM.

As for `COc1ncc(-c2cc3cc[nH]c(=O)c3c(Nc3ccc(C4CNC4)cc3)n2)cn1` [compound 130], the IC50 is 0.057 µM.

As to `COc1cncc(-c2cc3cc[nH]c(=O)c3c(Nc3ccc(C(=O)NCCN4CCCC4)cc3)n2)n1` [compound 82], the IC50 amounted to 0.014 µM.

`Cc1cc(Nc2nc(Nc3cc(C(F)(F)F)ccn3)cc3cc[nH]c(=O)c23)ccc1C1CCN(C2CC2)CC1` [compound 255]: the IC50 came out at 0.434 µM.

For `Cc1ncc(-c2cc3cc[nH]c(=O)c3c(Nc3ccc(N4C[C@@H](C)O[C@@H](C)C4)nc3)n2)cn1` [compound 17], the IC50 worked out at 0.163 µM.

Take `Cn1ccc2cc(Nc3ccc(C(N)=O)cn3)nc(N)c2c1=O` [compound 574]: the concentration for half-maximal inhibition (IC50) was 0.142 µM.

For `Cc1ccc(Nc2cc3cc[nH]c(=O)c3c(Nc3ccc(C4CCN(C5CC5)CC4)c(C)c3)n2)nc1` [compound 249], the IC50 was 1.59 µM.

Regarding `Cc1cc(Nc2nc(Nc3ccc(C(N)=O)cn3)cc3cc[nH]c(=O)c23)ccc1N1CCO[C@H](C)C1` [compound 538], the half-inhibitory concentration (IC50) stood at 0.361 µM.

As to `Cc1ccnc(Nc2cc3ccn(C)c(=O)c3c(N[C@H]3CC[C@@H](O)CC3)n2)c1` [compound 326], the IC50 was 0.032 µM.

For the molecule `O=c1[nH]ccc2cc(-c3cncnc3)nc(Nc3ccc(C4CNC4)cc3)c12` [compound 129], the half-maximal inhibitory concentration (IC50) stood at 0.109 µM.

Turning to `COc1cncc(-c2cc3cc[nH]c(=O)c3c(Nc3ccc(N4CCC(OC)CC4)cc3)n2)n1` [compound 20], the concentration for half-maximal inhibition (IC50) came out at 0.318 µM.

With `Nc1ncc(-c2cc3c(F)c[nH]c(=O)c3c(Nc3ccc(N4CCOCC4)cc3)n2)cn1` [compound 428], the IC50 stood at 0.108 µM.

As to `COc1cncc(-c2cc3cc[nH]c(=O)c3c(Nc3ccc([C@H]4CC[C@H](N5CCOCC5)CC4)cc3)n2)n1` [compound 56], the IC50 amounted to 0.358 µM.

As for `CC[C@H](CO)Nc1nc(Nc2cnccn2)cc2ccn(CC)c(=O)c12` [compound 457], the IC50 worked out at 0.302 µM.

Turning to `O=c1[nH]ccc2cc(Nc3ccc([N+](=O)[O-])cn3)nc(Nc3ccc(N4CCOCC4)cc3)c12` [compound 565], the IC50 amounted to 0.71 µM.

Regarding `[2H]C([2H])([2H])n1ccc2cc(Nc3cc(C)ccn3)nc(N[C@H]3CC[C@@H](O)CC3)c2c1=O` [compound 378], the IC50 is 0.02 µM.

Turning to `Cc1ccnc(Nc2cc3ccn(CCO)c(=O)c3c(N[C@H]3CCC[C@H]3O)n2)c1` (racemic) [compound 368], the IC50 was determined as 0.016 µM.

Turning to `CNC(=O)c1ccc(Nc2nc(Nc3cnccn3)cc3ccn(C)c(=O)c23)cc1` [compound 343], the half-maximal inhibitory concentration (IC50) stood at 0.333 µM.

For the molecule `COc1cncc(-c2cc3cc[nH]c(=O)c3c(Nc3ccc(CCC(=O)N4CCOCC4)cc3)n2)n1` [compound 25], the IC50 is 0.024 µM.

Turning to `COc1cncc(-c2cc3cc[nH]c(=O)c3c(Nc3ccc(C4CCN(C(C)C(=O)NC5CC5)CC4)c(C)c3)n2)n1` (centres unmarked) [compound 121], the IC50 came to 0.183 µM.

On to `Cc1ccnc(Nc2cc3cc[nH]c(=O)c3c(NC3CCN(C)CC3)n2)c1` [compound 550], for which the IC50 was found to be 0.111 µM.

For the molecule `CCN1CCC(c2ccc(Nc3nc(-c4cncc(OC)n4)cc4cc[nH]c(=O)c34)cc2C)CC1` [compound 137], the IC50 worked out at 0.01 µM.

Take `O=c1[nH]ccc2cc(Nc3ccc(C(F)(F)F)cn3)nc(Nc3ccc(N4CCOCC4)cc3)c12` [compound 577]: the half-inhibitory concentration (IC50) was 0.76 µM.

For `CNC(=O)CCN1CCC(c2ccc(Nc3nc(-c4cncc(OC)n4)cc4cc[nH]c(=O)c34)cc2C)CC1` [compound 161], the IC50 worked out at 0.018 µM.

For the molecule `CCn1ccc2cc(-c3cnc(N)nc3)nc(NC3CC3)c2c1=O` [compound 37], the IC50 was 0.069 µM.

In the case of `Nc1ncc(-c2cc3ccn(CC4CC4(F)F)c(=O)c3c(Nc3ccc(N4CCOCC4)cc3)n2)cn1` (centres unmarked) [compound 4], the IC50 came to 0.489 µM.

In the case of `CC(C)Nc1nc(-c2cnc(N)nc2)cc2ccn(CCO)c(=O)c12` [compound 32], the IC50 stood at 0.14 µM.

With `CCNC(=O)c1ccc(Nc2nc(Nc3cc(Cl)ccn3)cc3ccn(C)c(=O)c23)cc1` [compound 382], the IC50 amounted to 0.362 µM.

On to `Cc1ccnc(Nc2cc3cc[nH]c(=O)c3c(NC3CCN(Cc4ccccc4)C3)n2)c1` (centres unmarked) [compound 553], for which the concentration for half-maximal inhibition (IC50) was determined as 0.55 µM.

`CC1(Nc2nc(Nc3cnccn3)cc3ccn(CCO)c(=O)c23)CCC1` [compound 458]: the IC50 stood at 0.0114 µM.

Values taken from patent publication US20110053897A1 (IRM LLC, priority 2009, published 2011).
